Earlier results on 1 compound are cited in patent US20230210793A1 (priority 2021, published 2023).

Structures are written as SMILES.

As to `O=NN(CCCl)C(=O)NCCCl` [Carmustine, 1,3-bis(2-chloroethyl)-1-nitrosourea], the solubility in water result is reported as “poorly soluble”.
